In US11384381B2, “Reaction accelerating agent” (Kikkoman Corporation, priority 2016, dated 2022):

Assays:
CFP-DH4 (A1cOX) = assay: Acceleration of HbA1c detection reaction with small amount of A1cOX (Example 5); format: biochemical; details: 0.04% (w/v) compound, 1.1 mg/ml CFP-DH4; for effect of accelerating the HbA1c detection reaction: versus not added; for Degree of progression of reaction (%) after 7.5 minutes / Degree of progression of reaction (%) after 10 minutes: HbA1c detection reaction, ΔA/ΔA100%; for Degree of progression of reaction (%) after 7.5 minutes: 2.5 minutes after addition of second reagent, not added: 51; for Degree of progression of reaction (%) after 10 minutes: 5 minutes after addition of second reagent, not added: 73
Experimental: Next, in this Example, the degree of acceleration of HbA1c detection reaction by the compound of the present invention was determined using a small amount of A1cOX.
A reagent for HbA1c measurement having the following composition was prepared, and the measurement of HbA1c was carried out using Bio Majesty JCA-BM1650 (manufactured by JEOL Ltd.).
Blood cells (10.4% HbA1c (NGSP value))
30 mM MOPS-NaOH buffer solution, pH 6.5
0.2% (w/v) n-dodecyl-3-D-maltoside (manufactured by Dojindo Laboratories)
(§1) 10 U/ml peroxidase PEO-301 (Toyobo Co., Ltd.)
(§2) 0.023 mM 10-(carboxymethylaminocarbonyl)-3,7-bis(dimethylamino)phenothiazine sodium (DA-67, manufactured by Wako Pure Chemical Industries, Ltd.)
0.04% (w/v) of the compound of Comparative Example 2, any one compound of the present invention, or compound-free (Comparative Example 1) ion-exchange water as shown in Table 2
10 mM MOPS-NaOH buffer solution, pH 6.5
1.1 mg/ml CFP-DH4 (A cOX)
8 μl of the sample diluted 51-fold with ion-exchange water was added to 96 μl of the first reagent, and the mixture was incubated at 37° C. for 5 minutes. Then, 24 μl of the second reagent-B was added thereto, and the quantitative reaction of hydrogen peroxide resulting from the oxidation of the β-chain amino terminus of HbA1c was allowed to progress at 37° C. for 5 minutes. The absorbance ([…] and A751) of the reaction solution for light at wavelengths of 694 nm and 751 nm was measured over time for 10 minutes after the mixing of the diluted sample with the first reagent to determine the value of subtraction of A751 from A694, i.e., the value A694/751. Subsequently, ΔA was calculated by subtracting, from A694/751, the value of (104/128) times A694/751 4.8 minutes after the mixing of the diluted sample with the first reagent. Incidentally, […] after the mixing of the diluted sample with the first reagent represents the time immediately before the addition of the second reagent-B.
(§3) Next, ΔA calculated in this Example was divided by ΔA100% defined in Example 4 to calculate the degree of progression of HbA1c detection reaction. The degree of progression of HbA1c detection reaction 7.5 and 10 minutes after the mixing of the diluted sample with the first reagent (in other words, 2.5 and 5 minutes after the addition of the second reagent-B) is shown in Table 2.

[1] = test system: cholesterol oxidase (CHO-CE); assay: Acceleration of cholesterol detection reaction with small amount of cholesterol oxidase (Example 13); format: biochemical; details: 0.04% (w/v) compound, 2.31 U/ml CHO-CE; for effect of accelerating cholesterol detection reaction: versus not added; for Degree of progression of reaction (%) after 7.5 minutes / Degree of progression of reaction (%) after 10 minutes: cholesterol detection reaction, ΔA/ΔA100%; for Degree of progression of reaction (%) after 7.5 minutes: 2.5 minutes after addition of second reagent, not added: 65; for Degree of progression of reaction (%) after 10 minutes: 5 minutes after addition of second reagent, not added: 88
Experimental: Next, in this Example, the degree of acceleration of cholesterol detection reaction by the compound of the present invention was determined using a small amount of cholesterol oxidase.
A reagent for cholesterol measurement having the following composition was prepared, and the measurement of cholesterol was carried out using Bio Majesty JCA-BM […] (manufactured by JEOL Ltd.).
32 μM cholesterol (manufactured by Wako Pure Chemical Industries, Ltd.)
5.0% (v/v) Triton X-100 (manufactured by Wako Pure Chemical Industries, Ltd.)
4.0% (w/v) sodium cholate (manufactured by Wako Pure Chemical Industries, Ltd.)
30 mM MOPS-NaOH buffer solution, pH 7.0
as §1, §2
0.04% (w/v) of the compound of Comparative Example 2, any one compound of the present invention, or compound-free (Comparative Example 1) ion-exchange water as shown in Table 1
10 mM MOPS-NaOH buffer solution, pH 7.0
2.31 U/ml CHO-CE (manufactured by Kikkoman Biochemifa Company)
8 μl of the sample was added to 96 μl of the first reagent-E, and the mixture was incubated at 37° C. for 5 minutes. Then, 24 μl of the second reagent-J was added thereto, and the quantitative reaction of hydrogen peroxide resulting from the oxidation of cholesterol was allowed to progress at 37° C. for 5 minutes. The absorbance (A694 and A751) of the reaction solution for light at wavelengths of 694 nm and 751 nm was measured over time for 10 minutes after the mixing of the sample with the first reagent-E to determine the value of subtraction of A751 from A694, i.e., the value A694/751. Subsequently, ΔA was calculated by subtracting, from A694/751, the value of (104/128) times A694/751 4.8 minutes after the mixing of the sample with the first reagent-E. Incidentally, 5 minutes after the mixing of the sample with the first reagent-E represents the time immediately before the addition of the second reagent-J.
as §3, with “Example 12” for “Example 4”, “of cholesterol” for “of HbA1c”, “the” for “the diluted”, “first reagent-E” for “first reagent”, “second reagent-J)” for “second reagent-B)”, “Table 10.” for “Table 2.”

Row | Compound | effect of accelerating the HbA1c detection reaction (CFP-DH4 (A1cOX)) | Degree of progression of reaction (%) after 7.5 minutes (CFP-DH4 (A1cOX)) [%] | Degree of progression of reaction (%) after 10 minutes (CFP-DH4 (A1cOX)) [%] | effect of accelerating cholesterol detection reaction [1] | Degree of progression of reaction (%) after 7.5 minutes [1] [%] | Degree of progression of reaction (%) after 10 minutes [1] [%]
1 | COc1cc(N=Nc2cccc(S(=O)(=O)[O-])c2)ccc1NC(=O)Nc1ccc(N=Nc2ccc(O)c(C(=O)[O-])c2)cc1.[Na+].[Na+] [Direct Yellow 44] | effect of accelerating the HbA1c detection reaction | 77 | 96 | – | – | –
2 | COc1cc(N=Nc2ccc(N)cc2)c(C)cc1N [Disperse Diazo Black 3BF] | – | – | – | effect of accelerating cholesterol detection reaction | 66 | 97
3 | Xylene Fast Yellow 2G | effect of accelerating the HbA1c detection reaction | 58 | 83 | – | – | –
4 | O=C([O-])c1cc(N=Nc2cccc([N+](=O)[O-])c2)ccc1O.[Na+] [Alizarin Yellow GG] | effect of accelerating the HbA1c detection reaction | 76 | 91 | effect of accelerating cholesterol detection reaction | 73 | 93
5 | O=C(O)c1cc(N=Nc2ccc3cc(S(=O)(=O)O)ccc3c2)ccc1O.[Na] [Chrome Yellow] | effect of accelerating the HbA1c detection reaction | 53 | 77 | effect of accelerating cholesterol detection reaction | 67 | 91
6 | Acid Red 151 | effect of accelerating the HbA1c detection reaction | 55 | 80 | effect of accelerating cholesterol detection reaction | 74 | 94
7 | O=C([O-])c1cc(N=Nc2ccc([N+](=O)[O-])cc2)ccc1O.[Na+] [Mordant Orange 1] | effect of accelerating the HbA1c detection reaction | 80 | 94 | effect of accelerating cholesterol detection reaction | 74 | 94
8 | O=S(=O)([O-])c1cccc(N=Nc2ccc(Nc3ccccc3)cc2)c1.[Na+] [Acid Yellow 36] | effect of accelerating the HbA1c detection reaction | 53 | 81 | effect of accelerating cholesterol detection reaction | 73 | 92
9 | Cc1nn(-c2cc(S(=O)(=O)[O-])ccc2Cl)c(O)c1N=Nc1ccccc1.[Na+] [Acid Yellow 34] | effect of accelerating the HbA1c detection reaction | 75 | 95 | effect of accelerating cholesterol detection reaction | 72 | 92
